Laboratory results as given in ChEMBL document CHEMBL1201862, “PubChem BioAssay data set” (2004).
The source made the active and inactive calls.

Assays:
[1] = biological target: Protein Wnt-3a (Mus musculus, UniProt P27467); test: Wnt3a-driven reporter signaling inhibition, dose response, selectivity assay for Gli-SUFU antagonist project, Wnt-LIGHT cells, luminescence (AID 651570); format: functional; conditions: read-out: IC50_Mean;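 also: Wnt-LIGHT reporter cells stimulated with conditioned medium from Wnt3a-producing cells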
[2] = Luminescence Cell-Based Dose Retest to Confirm Inhibitors of Cancer Stem Cells. [Related pubchem assays (depositor defined):AID2717, AID2721]; format: functional; conditions: Homo sapiens
[3] = tested on: INS1; test: beta cell apoptosis inhibitors, cytokine rescue, dose response, luminescence, retest (AID 449756); format: functional, cell-based; conditions: Rattus norvegicus;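 also: cell death triggered by IL-1 beta plus TNF-alpha plus IFN-gamma mixture; protective hits raise ATP signal compared with cytokine alone wells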
[4] = Shn3 3'UTR reporter inhibitors, dose response, cell-based, Clone20 osteoblasts, firefly luciferase, cherry-picked (AID 624132); format: functional;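 also: firefly luciferase luminescence from reporter carrying the Shn3 3'UTR in osteoblasts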
[5] = HepG2 cell cytotoxicity, dose response, cytotoxicity control for Shn3 inhibitor project, CellTiter-Glo, cherry-picked (AID 624134); format: functional, cell-based
[6] = control 3'UTR Renilla luciferase suppression, dose response, counter-screen for Shn3 inhibitor project, cell-based, Clone20-Shn3RL, cherry-picked (AID 624133); format: functional
[7] = biological target: Beta-galactosidase (Escherichia coli, UniProt Q8VNN2); test: Dose response counterscreen for EBI2 assay utilizing the enzyme, b-galactosidase.; format: functional
[8] = biological target: Large T antigen (Simian virus 40, UniProt P03070); format: functional, Betapolyomavirus macacae;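 also: Confirmatory-stage PubChem screen for compounds that inhibit SV40 T antigen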
[9] = biological target: T1, Calpain-2 catalytic subunit (Sus scrofa, UniProt P43367); test: pig calpain II inhibitor potency, dose response, biochemical, fluorogenic peptide substrate (AID 1420); format: functional
T1 sequence (P43367 whole entry): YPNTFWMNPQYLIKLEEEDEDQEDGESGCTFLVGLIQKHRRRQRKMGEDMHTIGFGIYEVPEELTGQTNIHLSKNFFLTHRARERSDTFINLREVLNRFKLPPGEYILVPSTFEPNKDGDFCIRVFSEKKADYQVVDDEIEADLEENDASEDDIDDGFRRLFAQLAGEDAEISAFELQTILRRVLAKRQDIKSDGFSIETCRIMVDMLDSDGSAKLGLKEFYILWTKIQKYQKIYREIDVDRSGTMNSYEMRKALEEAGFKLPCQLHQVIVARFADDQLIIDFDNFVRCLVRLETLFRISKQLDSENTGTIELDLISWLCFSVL

[10] = biological target: FAD-linked sulfhydryl oxidase ALR (Homo sapiens, UniProt P55789); test: inhibitors of human ALR sulfhydryl oxidase, dose response, biochemical, H2O2 detection, luminescence, cherry-pick (AID 493248)
[11] = biological target: T2, Corticotropin-releasing factor receptor 2/Corticotropin-releasing factor-binding protein (Homo sapiens, UniProt P24387+Q13324); test: Dose Response confirmation of uHTS hits for small molecule antagonists of the CRF-binding protein and CRF-R2 receptor complex.; format: functional; conditions: read-out: IC50_Mean
T2 sequence (Q13324 whole entry): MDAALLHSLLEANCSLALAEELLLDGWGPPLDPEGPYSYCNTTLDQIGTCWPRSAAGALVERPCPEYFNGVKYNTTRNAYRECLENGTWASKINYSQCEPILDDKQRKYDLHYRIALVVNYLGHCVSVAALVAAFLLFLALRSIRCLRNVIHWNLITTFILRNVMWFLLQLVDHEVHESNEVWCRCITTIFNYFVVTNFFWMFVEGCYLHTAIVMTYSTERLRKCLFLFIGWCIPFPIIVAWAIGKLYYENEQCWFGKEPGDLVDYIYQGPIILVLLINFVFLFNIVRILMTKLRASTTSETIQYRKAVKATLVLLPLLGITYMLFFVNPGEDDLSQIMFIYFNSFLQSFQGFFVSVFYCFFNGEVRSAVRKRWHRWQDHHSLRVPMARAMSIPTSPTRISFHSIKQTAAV
T2 sequence (P24387 whole entry): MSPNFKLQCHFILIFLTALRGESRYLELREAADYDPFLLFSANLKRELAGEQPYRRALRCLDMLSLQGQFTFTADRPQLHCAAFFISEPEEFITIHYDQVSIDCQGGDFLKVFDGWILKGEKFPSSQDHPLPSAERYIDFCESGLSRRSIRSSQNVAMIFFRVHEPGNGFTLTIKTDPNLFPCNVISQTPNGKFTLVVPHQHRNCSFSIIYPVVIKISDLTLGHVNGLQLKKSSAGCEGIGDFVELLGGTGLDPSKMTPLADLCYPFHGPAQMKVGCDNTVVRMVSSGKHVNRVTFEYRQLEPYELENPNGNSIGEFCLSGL

[12] = biological target: T2, Corticotropin-releasing factor receptor 2/Corticotropin-releasing factor-binding protein; test: activators of CRF receptor 2 with binding protein – uHTS hits, confirmation (AID 602473); format: functional; conditions: read-out: EC50_Mean
[13] = CRF-BP/CRF-R2 complex antagonists, dose response, cell-based, uHTS hits, 384-well (AID 651639); format: functional, Homo sapiens; conditions: read-out: IC50_Mean
[14] = THP-1 cell cytotoxicity, dose response, cytotoxicity control for non-replicating M. tuberculosis project (AID 489025); format: functional
[15] = biological target: Albumin (Bos taurus, UniProt P02769); test: Counterscreen for inhibitors of T-cell receptor (TCR)-CD3 interaction: Fluorescence-based biochemical high throughput dose response assay to identify inhibitors of T-cell receptor (TCR)-CD3 interaction using a TAMRA-labeled BSA probe.; format: functional
[16] = biological target: Paired box protein Pax-8 (Homo sapiens, UniProt Q06710); test: inhibitors of PAX8-driven TPO luciferase reporter, dose response, RMG-I cells, cherry-pick (AID 687027); format: functional, cell-based;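 also: luciferase reporter driven by Pax8 target thyroperoxidase promoter measured by SteadyGlo luminescence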
[17] = cells; format: functional, cell-based
[18] = biological target: T3, Trace amine-associated receptor 1 (Homo sapiens, UniProt Q96RJ0); test: Fluorescence-based cell-based high throughput dose response assay to identify agonists of the human trace amine associated receptor 1 (TAAR1).; format: functional
T3 sequence (Q96RJ0 whole entry): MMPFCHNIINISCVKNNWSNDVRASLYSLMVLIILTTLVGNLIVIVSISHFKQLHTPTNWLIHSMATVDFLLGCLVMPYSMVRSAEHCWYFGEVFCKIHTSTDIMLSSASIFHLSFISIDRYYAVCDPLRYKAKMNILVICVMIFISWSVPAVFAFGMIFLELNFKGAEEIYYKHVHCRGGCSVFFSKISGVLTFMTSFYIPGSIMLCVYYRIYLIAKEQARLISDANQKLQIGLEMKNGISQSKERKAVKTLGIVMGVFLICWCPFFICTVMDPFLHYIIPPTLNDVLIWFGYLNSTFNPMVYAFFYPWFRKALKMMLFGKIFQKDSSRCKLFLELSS

[19] = biological target: T3, Trace amine-associated receptor 1; test: Counterscreen for agonists of the human trace amine associated receptor 1 (hTAAR1): Fluorescence-based cell-based high throughput dose response assay to identify hTAAR1 agonist that also desensitize TAAR1 receptor response.; format: functional
[20] = cells; format: functional, cell-based; remark: listed apart in the source

Sequence of Beta-galactosidase (Q8VNN2 whole entry): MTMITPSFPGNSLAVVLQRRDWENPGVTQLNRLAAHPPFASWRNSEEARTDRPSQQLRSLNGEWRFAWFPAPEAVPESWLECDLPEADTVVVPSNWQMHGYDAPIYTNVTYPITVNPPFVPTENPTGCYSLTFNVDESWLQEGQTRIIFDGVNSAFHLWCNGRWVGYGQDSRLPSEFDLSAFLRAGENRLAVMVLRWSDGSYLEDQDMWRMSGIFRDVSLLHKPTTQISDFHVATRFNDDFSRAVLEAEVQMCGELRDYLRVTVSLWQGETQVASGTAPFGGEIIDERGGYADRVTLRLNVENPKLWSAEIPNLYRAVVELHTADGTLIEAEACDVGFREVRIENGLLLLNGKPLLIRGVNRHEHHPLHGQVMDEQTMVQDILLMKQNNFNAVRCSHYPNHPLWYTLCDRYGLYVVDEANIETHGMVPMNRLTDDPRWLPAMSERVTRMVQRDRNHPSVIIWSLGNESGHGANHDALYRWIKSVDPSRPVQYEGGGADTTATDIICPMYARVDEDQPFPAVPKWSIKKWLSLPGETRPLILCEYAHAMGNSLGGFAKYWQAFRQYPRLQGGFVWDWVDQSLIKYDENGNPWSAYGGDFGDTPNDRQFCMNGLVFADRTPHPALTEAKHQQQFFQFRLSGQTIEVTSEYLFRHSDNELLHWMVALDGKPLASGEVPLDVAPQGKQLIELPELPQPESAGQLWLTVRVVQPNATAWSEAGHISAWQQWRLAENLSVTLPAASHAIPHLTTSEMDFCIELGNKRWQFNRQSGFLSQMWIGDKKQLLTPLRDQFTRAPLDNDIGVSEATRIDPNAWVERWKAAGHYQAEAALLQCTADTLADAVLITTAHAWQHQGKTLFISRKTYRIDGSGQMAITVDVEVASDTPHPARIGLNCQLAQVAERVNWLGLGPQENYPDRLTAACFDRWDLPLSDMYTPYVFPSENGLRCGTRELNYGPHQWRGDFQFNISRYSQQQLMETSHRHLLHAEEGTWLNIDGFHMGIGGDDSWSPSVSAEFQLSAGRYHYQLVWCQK
Sequence of Paired box protein Pax-8 (Q06710 whole entry): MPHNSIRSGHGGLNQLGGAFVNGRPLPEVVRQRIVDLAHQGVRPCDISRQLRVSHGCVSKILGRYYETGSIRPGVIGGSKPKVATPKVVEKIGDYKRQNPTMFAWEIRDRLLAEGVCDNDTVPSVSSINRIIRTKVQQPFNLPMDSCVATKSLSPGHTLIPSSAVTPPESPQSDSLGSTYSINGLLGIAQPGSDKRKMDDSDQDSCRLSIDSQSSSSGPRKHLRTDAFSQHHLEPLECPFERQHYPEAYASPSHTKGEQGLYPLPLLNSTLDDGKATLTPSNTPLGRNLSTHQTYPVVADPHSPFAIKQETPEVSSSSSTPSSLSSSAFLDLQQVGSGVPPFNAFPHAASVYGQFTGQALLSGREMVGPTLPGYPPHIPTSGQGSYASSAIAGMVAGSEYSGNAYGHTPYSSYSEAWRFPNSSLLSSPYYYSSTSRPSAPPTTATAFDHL
Sequence of Protein Wnt-3a (P27467 whole entry): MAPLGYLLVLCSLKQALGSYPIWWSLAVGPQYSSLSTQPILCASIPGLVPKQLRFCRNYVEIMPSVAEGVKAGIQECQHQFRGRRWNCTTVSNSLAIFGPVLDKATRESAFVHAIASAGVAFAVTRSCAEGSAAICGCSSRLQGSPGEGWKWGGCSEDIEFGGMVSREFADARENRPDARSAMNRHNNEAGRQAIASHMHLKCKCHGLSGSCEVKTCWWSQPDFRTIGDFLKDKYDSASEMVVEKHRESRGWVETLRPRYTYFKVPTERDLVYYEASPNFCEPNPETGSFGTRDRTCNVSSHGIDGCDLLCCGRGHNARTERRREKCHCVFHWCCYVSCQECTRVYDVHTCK
Sequence of Large T antigen (P03070 whole entry): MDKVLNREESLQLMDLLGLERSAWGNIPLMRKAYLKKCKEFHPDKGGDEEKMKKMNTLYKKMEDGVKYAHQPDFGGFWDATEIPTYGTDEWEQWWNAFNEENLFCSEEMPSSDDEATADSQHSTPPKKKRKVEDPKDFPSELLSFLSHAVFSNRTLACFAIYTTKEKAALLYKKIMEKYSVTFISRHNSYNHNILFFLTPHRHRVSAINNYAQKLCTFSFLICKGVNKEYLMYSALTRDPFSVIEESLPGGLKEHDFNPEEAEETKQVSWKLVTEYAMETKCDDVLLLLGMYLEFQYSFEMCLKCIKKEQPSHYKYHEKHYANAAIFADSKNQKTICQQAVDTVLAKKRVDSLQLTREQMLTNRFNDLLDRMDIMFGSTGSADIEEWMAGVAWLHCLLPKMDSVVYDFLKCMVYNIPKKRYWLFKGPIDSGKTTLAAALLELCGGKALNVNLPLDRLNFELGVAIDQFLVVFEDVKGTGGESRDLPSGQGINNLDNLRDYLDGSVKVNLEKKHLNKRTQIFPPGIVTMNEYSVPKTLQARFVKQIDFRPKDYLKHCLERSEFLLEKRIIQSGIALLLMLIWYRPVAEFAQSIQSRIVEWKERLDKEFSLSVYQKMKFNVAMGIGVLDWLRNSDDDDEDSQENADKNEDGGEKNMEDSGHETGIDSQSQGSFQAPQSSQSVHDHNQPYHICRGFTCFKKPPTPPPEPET
Sequence of Albumin (P02769 whole entry): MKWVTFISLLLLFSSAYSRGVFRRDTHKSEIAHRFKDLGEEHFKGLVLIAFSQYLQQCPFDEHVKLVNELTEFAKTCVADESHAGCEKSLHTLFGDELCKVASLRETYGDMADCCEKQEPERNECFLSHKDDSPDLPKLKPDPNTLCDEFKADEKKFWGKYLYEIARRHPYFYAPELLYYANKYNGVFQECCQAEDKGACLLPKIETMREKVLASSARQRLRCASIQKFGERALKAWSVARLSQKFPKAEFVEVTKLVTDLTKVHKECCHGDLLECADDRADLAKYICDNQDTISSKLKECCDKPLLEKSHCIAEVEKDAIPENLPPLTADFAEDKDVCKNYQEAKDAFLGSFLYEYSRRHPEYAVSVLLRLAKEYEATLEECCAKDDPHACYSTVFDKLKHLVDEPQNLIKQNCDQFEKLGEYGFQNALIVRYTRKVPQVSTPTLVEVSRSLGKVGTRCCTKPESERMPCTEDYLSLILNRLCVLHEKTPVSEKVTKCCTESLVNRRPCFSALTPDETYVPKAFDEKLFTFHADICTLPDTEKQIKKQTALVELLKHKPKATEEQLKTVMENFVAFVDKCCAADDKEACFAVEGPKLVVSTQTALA
Sequence of FAD-linked sulfhydryl oxidase ALR (P55789 whole entry): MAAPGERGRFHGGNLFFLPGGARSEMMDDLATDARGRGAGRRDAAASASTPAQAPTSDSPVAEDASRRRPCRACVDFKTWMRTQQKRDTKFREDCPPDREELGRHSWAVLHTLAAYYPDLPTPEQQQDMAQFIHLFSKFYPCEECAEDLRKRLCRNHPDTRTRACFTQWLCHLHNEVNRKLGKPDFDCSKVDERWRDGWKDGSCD

In the case of CCCCCn1c(=N)n(CC(O)COc2ccccc2OC)c2ccccc21 (stereo not drawn), the IC50 [1] is reported as 8.95 µM (active).

For c1ccc(CNc2c(-c3cccc(SC4CCCCC4)c3)nc3ccccn23)cc1, the AC50 [2] was 5.29 µM (active), the AC50 [3] was 5.06 µM (active) and the AC50 [4] was 3.46 µM (active). For the same compound, the AC50 [5] was > 70 µM (inactive) and the AC50 [6] was 6.09 µM (active).

In the case of OC[C@@H]1CN(Cc2cccc(C(F)(F)F)c2)C[C@H](n2cnc3c(NC4CC4)ncnc32)O1, the IC50 [7] is reported as > 80 µM (inactive).

With CC(C)(C)NC(=O)NC(=O)CN1CCN(c2ccc(O)cc2)CC1 the IC50 [8] was 21.2 µM (active), the IC50 [9] was 19.1 µM (not active) and the AC50 [10] was 4.04 µM (active). For the same compound, the AC50 [4] was 1.9 µM (active), the AC50 [5] was 67.2 µM (active) and the AC50 [6] was 5.88 µM (active).

With Cc1c(CC(Cl)(Cl)Cl)c2c(n1O)CC(C)(C)CC2=O the IC50 [11] was 2.98 µM (active), the EC50 [12] was 15.9 µM (active) and the IC50 [13] was > 20 µM (inactive).

For Cc1ccc(Cl)cc1N1CCN(C(=O)Cc2c(C(=O)O)[nH]c3ccccc23)CC1, the IC50 [11] was 33.5 µM (active), the EC50 [12] was > 53 µM (inactive) and the IC50 [13] was > 20 µM (inactive).

For COc1ccc(C(=O)C=CNNC(=O)c2ccc(Cl)cc2)cc1, the CC50 [14] was 15.6 µM (active) and the IC50 [15] was > 94.1 µM (inactive).

With CCC(C)C1NC(=O)C(NC(=O)C(CC(C)C)N(C)C(=O)C2CCCN2C(=O)C(C)O)C(C)OC(=O)C(Cc2ccc(OC)cc2)N(C)C(=O)C2CCCN2C(=O)C(CC(C)C)NC(=O)[C@H](C)C(=O)[C@H](C(C)C)OC(=O)CC1O (stereo partly drawn) the AC50 [4] was < 0.26 µM (active), the AC50 [5] was > 70 µM (inactive) and the AC50 [6] was < 0.26 µM (active). For the same compound, the AC50 [16] was < 0.26 µM (active).

With O=C(CC(c1ccccc1)c1ccccc1O)NCc1ccccc1Cl (stereo not drawn) the IC50 [11] was 2.7 µM (active), the EC50 [12] was > 53 µM (inactive) and the IC50 [13] was > 20 µM (inactive).

With NCCc1nc(-c2ccccc2)cs1 the IC50 [17] was > 29.9 µM (inactive), the EC50 [18] was 4.72 µM (active) and the IC50 [19] was > 29.9 µM (inactive). For the same compound, the EC50 [20] was > 29.9 µM (inactive).

In the case of O=C(Nc1ccc(Cl)cc1)N1CCC(c2ccccc2)C1 (stereo not drawn), the IC50 [7] is reported as > 80 µM (inactive).
